In US20190151312A1, “HEPARAN SULFATE BIOSYNTHESIS INHIBITORS FOR THE TREATMENT OF DISEASES” (BioMarin Pharmaceutical Inc., priority 2014, published 2019):

test system: GM01896 cells (MPS II dermal fibroblasts); test: Assay 1: MPS cellular assay, MPS II (heparan sulfate disaccharide biomarkers by LC-MS); format: cell-based, human; settings: Assay 1 for MPS II, heparan sulfate disaccharide biomarkers (I2a4, I2a6, I2S0 and/or I2S6), read-out: IC50 Range
Outline: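 Heparan sulfate disaccharide biomarkers quantified by LC-MS after heparinase I/II/III digestion and isotopic aniline labelling, using GM01896 MPS II fibroblasts exposed to compound (at or below 30 μM, 4-21 days). Values given as IC50 by curve fitting; cell viability checked with alamar blue or ATP.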

Compound	IC50 [µM]
Cn1nc(N2CCOCC2)c2ccc(-c3cc(Nc4ccc(Cl)cc4)nc(N4CCOCC4)n3)cc21 [(4-chlorophenyl)[6-(1-methyl-3-morpholin-4-yl(1H-indazol-6-yl))-2-morpholin-4-ylpyrimidin-4-yl]amine]	1 to 5
[6-(1-methyl(1H-indazol-6-yl))-2-morpholin-4-ylpyrimidin-4-yl][4-(3-methylpyrazolyl)phenyl]amine	< 0.5

same assay, conditions: Homo sapiens, Fibroblast, Assay 1 for MPS II, heparan sulfate disaccharide biomarkers (I2a4, I2a6, I2S0 and/or I2S6), read-out: IC50 Range

Compound	IC50 [µM]
CNC(=O)c1ccc(Nc2cc(-c3ccc4c(c3)ncn4CC3CC3)nc(N3CCOCC3)n2)cn1 [[5-({6-[1-(cyclopropylmethyl)benzimidazol-5-yl]-2-morpholin-4-ylpyrimidin-4-yl}amino)(2-pyridyl)]-N-methylcarboxamide]	0.5 to 1
Cn1c(C2CC2)nc2ccc(-c3cc(Nc4ccc(Cl)cc4)nc(N4CCOCC4)n3)cc21 [(4-chlorophenyl)[6-(2-cyclopropyl-1-methylbenzimidazol-6-yl)-2-morpholin-4-ylpyrimidin-4-yl]amine]	0.5 to 1
Cc1nc2ccc(-c3cc(Nc4ccc(Cl)cc4)nc(N4CCOCC4)n3)cc2n1CCN1CCCC1 [(4-chlorophenyl){6-[2-methyl-1-(2-pyrrolidinylethyl)benzimidazol-6-yl]-2-morpholin-4-ylpyrimidin-4-yl}amine]	1 to 5
Cn1cc(-c2ccc(Nc3cc(-c4ccc5cnn(C)c5c4)nc(N4CCOCC4)n3)cc2)nn1 [[4-(1-methyl(1,2,3-triazol-4-yl))phenyl][6-(1-methyl(1H-indazol-6-yl))-2-morpholin-4-ylpyrimidin-4-yl]amine]	1 to 5
Cn1nc(CCCN2CCOCC2)c2ccc(-c3cc(Nc4ccc(Cl)cc4)nc(N4CCOCC4)n3)cc21 [(4-chlorophenyl){6-[1-methyl-3-(3-morpholin-4-ylpropyl)(1H-indazol-6-yl)]-2-morpholin-4-ylpyrimidin-4-yl}amine]	1 to 5
Cn1nc(CN2CCCC2)c2ccc(-c3cc(Nc4ccc(Cl)cc4)nc(N4CCOCC4)n3)cc21 [(4-chlorophenyl){6-[1-methyl-3-(pyrrolidinylmethyl)(1H-indazol-6-yl)]-2-morpholin-4-ylpyrimidin-4-yl}amine]	0.5 to 1
Cn1cnnc1-c1ccc(Nc2cc(-c3ccc4cnn(C)c4c3)nc(N3CCOCC3)n2)cc1 [[4-(4-methyl(1,2,4-triazol-3-yl))phenyl][6-(1-methyl(1H-indazol-6-yl))-2-morpholin-4-ylpyrimidin-4-yl]amine]	1 to 5
Clc1ccc(Nc2cc(-c3ccc4cnn(CCN5CCCC5)c4c3)nc(N3CCOCC3)n2)cc1 [(4-chlorophenyl){2-morpholin-4-yl-6-[1-(2-pyrrolidinylethyl)(1H-indazol-6-yl)]pyrimidin-4-yl}amine]	1 to 5
CN1CCN(CCCn2ncc3ccc(-c4cc(Nc5ccc(Cl)cc5)nc(N5CCOCC5)n4)cc32)CC1 [(4-chlorophenyl)(6-{1-[3-(4-methylpiperazinyl)propyl](1H-indazol-6-yl)}-2-morpholin-4-ylpyrimidin-4-yl)amine]	0.5 to 1
Clc1ccc(Nc2cc(-c3ccc4c(c3)ncn4C3CC3)nc(N3CCOCC3)n2)cc1 [(4-chlorophenyl)[6-(1-cyclopropylbenzimidazol-5-yl)-2-morpholin-4-ylpyrimidin-4-yl]amine]	1 to 5
Clc1ccc(Nc2cc(-c3ccc4ncn(CCCN5CCOCC5)c4c3)nc(N3CCOCC3)n2)cc1 [(4-chlorophenyl){2-morpholin-4-yl-6-[1-(3-morpholin-4-ylpropyl)benzimidazol-6-yl]pyrimidin-4-yl}amine]	0.5 to 1
CNC(=O)c1ccc(Nc2cc(-c3ccc4ncn(CCN5CCCC5)c4c3)nc(N3CCOCC3)n2)cc1 [N-methyl[4-({2-morpholin-4-yl-6-[1-(2-pyrrolidinylethyl)benzimidazol-6-yl]pyrimidin-4-yl}amino)phenyl]carboxamide]	1 to 5
Cn1cnc2ccc(Nc3cc(-c4ccc5cnn(C)c5c4)nc(N4CCOCC4)n3)cc21 [[6-(1-methyl(1H-indazol-6-yl))-2-morpholin-4-ylpyrimidin-4-yl](1-methylbenzimidazol-6-yl)amine]	0.5 to 1
CNC(=O)c1ccc(Nc2cc(-c3ccc4ncn(CCCN(C)C)c4c3)nc(N3CCOCC3)n2)cc1 [{4-[(6-{1-[3-(dimethylamino)propyl]benzimidazol-6-yl}-2-morpholin-4-ylpyrimidin-4-yl)amino]phenyl}-N-methylcarboxamide]	1 to 5
Cn1ncc2ccc(-c3cc(Nc4ccc(-c5ncc(C(F)(F)F)[nH]5)cc4)nc(N4CCOCC4)n3)cc21 [[6-(1-methyl(1H-indazol-6-yl))-2-morpholin-4-ylpyrimidin-4-yl]{4-[5-(trifluoromethyl)imidazol-2-yl]phenyl}amine]	0.5 to 1
Cn1nc(CCN2CCOCC2)c2ccc(-c3cc(Nc4ccc(Br)cc4)nc(N4CCOCC4)n3)cc21 [(4-bromophenyl){6-[1-methyl-3-(2-morpholin-4-ylethyl)(1H-indazol-6-yl)]-2-morpholin-4-ylpyrimidin-4-yl}amine]	0.5 to 1
Cc1nnc(-c2ccc(Nc3cc(-c4ccc5cnn(C)c5c4)nc(N4CCOCC4)n3)cc2)[nH]1 [[6-(1-methyl(1H-indazol-6-yl))-2-morpholin-4-ylpyrimidin-4-yl][4-(5-methyl(4H-1,2,4-triazol-3-yl))phenyl]amine]	< 0.5
CNC(=O)c1ccc(Nc2cc(-c3ccc4c(cnn4CCCN4CCOCC4)c3)nc(N3CCOCC3)n2)cc1 [N-methyl[4-({2-morpholin-4-yl-6-[1-(3-morpholin-4-ylpropyl)(1H-indazol-5-yl)]pyrimidin-4-yl}amino)phenyl]carboxamide]	1 to 5

Compound	IC50 [µM]
COc1cc(Nc2cc(-c3ccc4c(c3)ncn4C)nc(N3CCOCC3)n2)ccn1 [(2-methoxy(4-pyridyl))[6-(1-methylbenzimidazol-5-yl)-2-morpholin-4-ylpyrimidin-4-yl]amine]	1 to 5
Clc1ccc(Nc2cc(-c3ccc4cn[nH]c4c3)nc(N3CCOCC3)n2)cc1 [N-(4-chlorophenyl)-6-(1H-indazol-6-yl)-2-morpholinopyrimidin-4-amine]	1 to 5
Cc1nn(C)c2cc(-c3cc(Nc4ccc5c(ccn5C)c4)nc(N4CCOCC4)n3)ccc12 [[6-(1,3-dimethyl(1H-indazol-6-yl))-2-morpholin-4-ylpyrimidin-4-yl](1-methylindol-5-yl)amine]	0.5 to 1
Cn1nc(CCN2CCOCC2)c2ccc(-c3cc(Nc4ccc(F)cc4)nc(N4CCOCC4)n3)cc21 [(4-fluorophenyl){6-[1-methyl-3-(2-morpholin-4-ylethyl)(1H-indazol-6-yl)]-2-morpholin-4-ylpyrimidin-4-yl}amine]	1 to 5
Clc1ccc(Nc2cc(-c3ccc4ncn(C5CCC5)c4c3)nc(N3CCOCC3)n2)cc1 [(4-chlorophenyl)[6-(1-cyclobutylbenzimidazol-6-yl)-2-morpholin-4-ylpyrimidin-4-yl]amine]	0.5 to 1
COCCn1cnc2ccc(-c3cc(Nc4ccc(Cl)cc4)nc(N4CCOCC4)n3)cc21 [(4-chlorophenyl){6-[1-(2-methoxyethyl)benzimidazol-6-yl]-2-morpholin-4-ylpyrimidin-4-yl}amine]	0.5 to 1
CCn1ccc2ccc(Nc3cc(-c4ccc5cnn(C)c5c4)nc(N4CCOCC4)n3)cc21 [(1-ethylindol-6-yl)[6-(1-methyl(1H-indazol-6-yl))-2-morpholin-4-ylpyrimidin-4-yl]amine]	1 to 5
CNC(=O)c1ccc(Nc2cc(-c3ccc4ncn(C5CC5)c4c3)nc(N3CCOCC3)n2)cn1 [(5-{[6-(1-cyclopropylbenzimidazol-6-yl)-2-morpholin-4-ylpyrimidin-4-yl]amino}(2-pyridyl))-N-methylcarboxamide]	0.5 to 1
Cn1ccnc1-c1ccc(Nc2cc(-c3ccc4c(CCN5CCOCC5)nn(C)c4c3)nc(N3CCOCC3)n2)cc1 [[4-(1-methylimidazol-2-yl)phenyl]{6-[1-methyl-3-(2-morpholin-4-ylethyl)(1H-indazol-6-yl)]-2-morpholin-4-ylpyrimidin-4-yl}amine]	0.5 to 1
Cc1ccc(Nc2cc(-c3ccc4ncn(C)c4c3)nc(N3CCOCC3)n2)cc1 [[6-(1-methylbenzimidazol-6-yl)-2-morpholin-4-ylpyrimidin-4-yl](4-methylphenyl)amine]	1 to 5
CCNC(=O)c1ccc(Nc2cc(-c3ccc4ncn(C)c4c3)nc(N3CCOCC3)n2)cc1 [N-ethyl(4-{[6-(1-methylbenzimidazol-6-yl)-2-morpholin-4-ylpyrimidin-4-yl]amino}phenyl)carboxamide]	1 to 5
Cc1nn(CCN2CCCC2)c2cc(-c3cc(Nc4ccc(Cl)cc4)nc(N4CCOCC4)n3)ccc12 [(4-chlorophenyl){6-[3-methyl-1-(2-pyrrolidinylethyl)(1H-indazol-6-yl)]-2-morpholin-4-ylpyrimidin-4-yl}amine]	1 to 5
Cc1nc2cc(-c3cc(Nc4ccc(Cl)cc4)nc(N4CCOCC4)n3)ccc2n1C1COC1 [(4-chlorophenyl)[6-(2-methyl-1-oxetan-3-ylbenzimidazol-5-yl)-2-morpholin-4-ylpyrimidin-4-yl]amine]	< 0.5
Cn1ncc2ncc(-c3cc(Nc4ccc(Cl)cc4)nc(N4CCOCC4)n3)cc21 [(4-chlorophenyl)[6-(1-methylpyrazolo[4,5-b]pyridin-6-yl)-2-morpholin-4-ylpyrimidin-4-yl]amine]	0.5 to 1
Cn1cnc2ccc(-c3cc(Nc4ccc(Cl)cc4)nc(N4CCOCC4)n3)cc21 [(4-chlorophenyl)[6-(1-methylbenzimidazol-6-yl)-2-morpholin-4-ylpyrimidin-4-yl]amine]	< 0.5
Cn1ccc2ccc(Nc3cc(-c4ccc5c(CCN6CCOCC6)nn(C)c5c4)nc(N4CCOCC4)n3)cc21 [(1-methylindol-6-yl){6-[1-methyl-3-(2-morpholin-4-ylethyl)(1H-indazol-6-yl)]-2-morpholin-4-ylpyrimidin-4-yl}amine]	< 0.5
Cc1nc2cc(-c3cc(Nc4ccc(Cl)cc4)nc(N4CCOCC4)n3)ccc2n1CCN1CCCC1 [(4-chlorophenyl){6-[2-methyl-1-(2-pyrrolidinylethyl)benzimidazol-5-yl]-2-morpholin-4-ylpyrimidin-4-yl}amine]	0.5 to 1
